# Biological target: T1, CYP11A1 (Homo sapiens, UniProt P05108)
# T1 construct: human H295R adrenocortical carcinoma cell line was used as source of enzyme; endogenous in cells; host or cells: H295R human adrenocortical carcinoma cells
# T1 sequence (P05108 40-521): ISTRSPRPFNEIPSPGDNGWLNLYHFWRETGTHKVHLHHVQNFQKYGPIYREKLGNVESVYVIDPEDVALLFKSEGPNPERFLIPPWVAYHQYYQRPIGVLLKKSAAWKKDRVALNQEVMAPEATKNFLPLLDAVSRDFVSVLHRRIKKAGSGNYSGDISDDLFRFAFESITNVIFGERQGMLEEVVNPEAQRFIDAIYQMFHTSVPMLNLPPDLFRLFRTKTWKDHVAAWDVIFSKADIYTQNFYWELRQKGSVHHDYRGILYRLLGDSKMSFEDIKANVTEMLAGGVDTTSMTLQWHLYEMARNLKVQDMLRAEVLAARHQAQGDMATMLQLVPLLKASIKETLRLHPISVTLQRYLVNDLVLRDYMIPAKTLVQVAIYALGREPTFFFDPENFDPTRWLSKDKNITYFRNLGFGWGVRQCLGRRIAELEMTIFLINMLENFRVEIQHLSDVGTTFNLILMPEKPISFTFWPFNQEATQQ
# Test: CYP11A1 inhibition, isocaproic acid release assay (IARA) in H295R cells
# Type: cell-based
# Conditions: human H295R adrenocortical carcinoma cells treated three days, 3 nM [24,25-3H]-labelled cholesterol, 1% DMSO; read-out: IC50 on CYP11A1 inhibition (Group)
# Experimental: The ability of the test compounds to inhibit conversion of cholesterol to pregnenolone and isocaproic acid was measured by modification of isocaproic acid release assay (IARA) described by Ruangwises et al. (Biology of Reproduction 1991; 45(1):143-50) except that human H295R adrenocortical carcinoma cell line was used as source of enzyme and extraction was done with dextran-coated charcoal suspension (Isomaa, V. et al., Endocrinology 1982; 111(3):833-843). […] To determine the half maximal inhibitory concentration (IC50) of the test compounds on CYP11A1 inhibition, the cells were treated for three days with increasing concentrations of the test compounds in the presence of 3 nM [24,25-3H]-labelled cholesterol (American Radiolabelled Chemicals).
# The final DMSO concentration was 1%. Cell culture medium was extracted with dextran-coated charcoal suspension and the radiolabelled isocaproic acid was determined by mixing 100 μl of supernatant fraction in 200 μl of scintillation fluid (OptiPhase SuperMix, Perkin Elmer). Radioactivity was measured using a Microbeta scintillation counter (1450 MicroBeta Trilux, Wallac). All the test compounds were studied at 10 concentrations in duplicates.
row,IC50 [nM],SMILES
1,351 to 1500,"COc1cc(CN2Cc3ccc(S(C)(=O)=O)cc3C2)ccc1OCc1ccc(C(=O)N(C)C)cc1 [Compound 32, 4-((2-Methoxy-4-((5-(methylsulfonyl)isoindolin-2-yl)methyl)phenoxy)methyl)-N,N-dimethylbenzamide]"
2,151 to 350,CS(=O)(=O)N1CCC(COc2ccc(CN3Cc4ccccc4C3)cc2C(F)(F)F)CC1 [Compound 56]
3,< 150,"CC(=O)c1cc(CN2Cc3ccccc3C2)ccc1OCC1CCN(S(C)(=O)=O)CC1 [Compound 48, 1-(5-(Isoindolin-2-ylmethyl)-2-((1-(methylsulfonyl)piperidin-4-yl)methoxy)-phenyl)ethan-1-one]"
4,151 to 350,"COC(=O)c1cc(CN2Cc3ccccc3C2)ccc1OCc1ccc(C(=O)N(C)C)cc1 [Compound 7, Methyl 2-((4-(dimethylcarbamoyl)benzyl)oxy)-5-(isoindolin-2-ylmethyl)-benzoate]"
5,< 150,"CN(C)C(=O)c1ccc(COc2cc(F)c(CN3Cc4ccccc4C3)cc2F)cc1 [Compound 26, 4-((2,5-Difluoro-4-(isoindolin-2-ylmethyl)phenoxy)methyl)-N,N-dimethyl-benzamide]"
6,151 to 350,"COCCc1cc(CN2Cc3ccccc3C2)ccc1OCC1CCN(S(C)(=O)=O)CC1 [Compound 37, 2-(3-(2-Methoxyethyl)-4-((1-(methylsulfonyl)piperidin-4-yl)methoxy)benzyl)-isoindoline]"
7,351 to 1500,"COc1c(OCC2CCN(C(=O)NC(C)C)CC2)ccc(CN2Cc3ccccc3C2)c1[N+](=O)[O-] [Compound 23, 4-((4-(Isoindolin-2-ylmethyl)-2-methoxy-3-nitrophenoxy)methyl)-N-isopropyl-piperidine-1-carboxamide]"
8,151 to 350,"CCC(=O)N1CCC(COc2ccc(CN3Cc4ccccc4C3)cc2C(C)=O)CC1 [Compound 49, 1-(4-((2-Acetyl-4-(isoindolin-2-ylmethyl)phenoxy)methyl)piperidin-1-yl)propan-1-one]"
9,351 to 1500,"COc1cc(CN2Cc3ccccc3C2)cc(F)c1OCc1ccc(C(=O)N(C)C)cc1 [Compound 28, 4-((2-Fluoro-4-(isoindolin-2-ylmethyl)-6-methoxyphenoxy)methyl)-N,N-di-methylbenzamide]"
10,351 to 1500,"CS(=N)(=O)c1ccc(COc2ccc(CN3Cc4ccccc4C3)c3ocnc23)cc1 (stereo not shown) [Compound 45, Imino(4-(((7-(isoindolin-2-ylmethyl)benzo[d]oxazol-4-yl)oxy)methyl)phenyl)-(methyl)-λ^6-sulfanone]"
11,< 150,"COCCNS(=O)(=O)c1ccc(COc2ccc(CN3Cc4ccccc4C3)cc2OC)cc1 [Compound 13, 4-((4-(Isoindolin-2-ylmethyl)-2-methoxyphenoxy)methyl)-N-(2-methoxyethyl)-benzenesulfonamide]"
12,< 150,"Cn1ncc2c(CN3Cc4ccccc4C3)ccc(OCC3CCN(S(C)(=O)=O)CC3)c21 [Compound 47, 4-(Isoindolin-2-ylmethyl)-1-methyl-7-((1-(methylsulfonyl)piperidin-4-yl)-methoxy)-1H-indazole]"
13,< 150,"CC(=O)c1cc(CN2Cc3ccccc3C2)ccc1OCc1ccc(C(=O)N(C)C)cc1 [Compound 42, 4-((2-Acetyl-4-(isoindolin-2-ylmethyl)phenoxy)methyl)-N,N-dimethylbenzamide]"
14,151 to 350,"CC(=O)c1cc(CN2Cc3ccccc3C2)ccc1OCC1CCC(S(C)(=O)=O)CC1 (stereo not shown) [Compound 50, 1-(5-(Isoindolin-2-ylmethyl)-2-((4-(methylsulfonyl)cyclohexyl)methoxy)-phenyl)ethan-1-one]"
15,151 to 350,"CN(C)C(=O)c1ccc(COc2ccc(CN3Cc4ccccc4C3)cc2OCC(F)(F)F)cc1 [Compound 11, 4-((4-(Isoindolin-2-ylmethyl)-2-(2,2,2-trifluoroethoxy)phenoxy)methyl)-N,N-dimethylbenzamide]"
16,151 to 350,"CCOc1cc(CN2Cc3ccccc3C2)ccc1OCc1ccc(C(=O)N(C)C)cc1 [Compound 8, 4-((2-Ethoxy-4-(isoindolin-2-ylmethyl)phenoxy)methyl)-N,N-dimethyl-benzamide]"
17,351 to 1500,"COC(=O)/C=C/c1ccc(COc2ccc(CN3Cc4ccccc4C3)cc2OC)cc1 [Compound 9, Methyl (E)-3-(4-((4-(isoindolin-2-ylmethyl)-2-methoxyphenoxy)methyl)phenyl)acrylate]"

row,IC50 [nM],SMILES
1,151 to 350,"COCc1cc(CN2Cc3ccccc3C2)ccc1OCc1ccc(S(C)(=O)=O)cc1 [Compound 18, 2-(3-(Methoxymethyl)-4-((4-(methylsulfonyl)benzyl)oxy)benzyl)isoindoline]"
2,151 to 350,"C=CCc1cc(CN2Cc3ccccc3C2)ccc1OCc1ccc(C(=O)N(C)C)cc1 [Compound 15, 4-((2-Allyl-4-(isoindolin-2-ylmethyl)phenoxy)methyl)-N,N-dimethylbenzamide]"
3,151 to 350,"CN(C)C(=O)c1ccc(COc2ccc(CN3Cc4ccccc4C3)cc2Cl)cc1 [Compound 4, 4-((2-Chloro-4-(isoindolin-2-ylmethyl)phenoxy)methyl)-N,N-dimethyl-benzamide]"
4,< 150,"COCc1cc(CN2Cc3ccccc3C2)ccc1OCC1CCN(S(C)(=O)=O)CC1 [Compound 22, 2-(3-(Methoxymethyl)-4-((1-(methylsulfonyl)piperidin-4-yl)methoxy)benzyl)-isoindoline]"
5,< 150,"CN(C)C(=O)c1ccc(COc2ccc(CN3Cc4ccccc4C3)cc2OCC(N)=O)cc1 [Compound 14, 4-((2-(2-Amino-2-oxoethoxy)-4-(isoindolin-2-ylmethyl)phenoxy)methyl)-N,N-dimethylbenzamide]"
6,351 to 1500,"COC(=O)c1ccc(COc2ccc(CN3Cc4ccccc4C3)cc2[N+](=O)[O-])cc1 [Compound 39, Methyl 4-((4-(isoindolin-2-ylmethyl)-2-nitrophenoxy)methyl)benzoate]"
7,351 to 1500,"CN(C)C(=O)c1ccc(COc2ccc(CN3Cc4ccccc4C3)c(F)c2)cc1 [Compound 24, 4-((3-Fluoro-4-(isoindolin-2-ylmethyl)phenoxy)methyl)-N,N-dimethylbenzamide]"
8,< 150,"CS(=O)(=O)N1CCC(COc2ccc(CN3Cc4ccccc4C3)cc2C#N)CC1 [Compound 19, 5-(Isoindolin-2-ylmethyl)-2-((1-(methylsulfonyl)piperidin-4-yl)methoxy)-benzonitrile]"
9,351 to 1500,"CN(C)C(=O)c1ccc(COc2ccc(CN3Cc4ccccc4C3)cc2OC(F)(F)F)cc1 [Compound 29, 4-((4-(Isoindolin-2-ylmethyl)-2-(trifluoromethoxy)phenoxy)methyl)-N,N-dimethylbenzamide]"
10,351 to 1500,"CN(C)C(=O)c1ccc(COc2ccc(CN3Cc4ccccc4C3)cc2N)cc1 [Compound 52, 4-((2-Amino-4-(isoindolin-2-ylmethyl)phenoxy)methyl)-N,N-dimethyl-benzamide]"
11,351 to 1500,"CN(C)C(=O)c1ccc(COc2ccc(CN3Cc4ccccc4C3=O)cc2OC(F)(F)F)cc1 [Compound 30, N,N-Dimethyl-4-((4-((1-oxoisoindolin-2-yl)methyl)-2-(trifluoromethoxy)-phenoxy)methyl)benzamide]"
12,< 150,"CN(C)C(=O)c1ccc(COc2ccc(CN3Cc4ccccc4C3)cc2[N+](=O)[O-])cc1 [Compound 40, 4-((4-(isoindolin-2-ylmethyl)-2-nitrophenoxy)methyl)-N,N-dimethylbenzamide]"
13,351 to 1500,"CN(C)C(=O)c1ccc(COc2ccc(CN3Cc4ccccc4C3)c(F)c2F)cc1 [Compound 27, 4-((2,3-Difluoro-4-(isoindolin-2-ylmethyl)phenoxy)methyl)-N,N-dimethyl-benzamide]"
14,< 150,"COc1cc(CN2Cc3ccccc3C2)ccc1OCc1ccc(S(C)(=O)=O)cc1 [Compound 12, 2-(3-Methoxy-4-((4-(methylsulfonyl)benzyl)oxy)benzyl)isoindoline]"
15,< 150,"CS(=O)(=O)c1ccc(COc2ccc(CN3Cc4ccccc4C3)cc2C(N)=O)cc1 [Compound 54, 5-(Isoindolin-2-ylmethyl)-2-((4-(methylsulfonyl)benzyl)oxy)benzamide]"
16,< 150,"CS(=N)(=O)c1ccc(COc2ccc(CN3Cc4ccccc4C3)c3cccnc23)cc1 (stereo not shown) [Compound 44, Imino(4-(((5-(isoindolin-2-ylmethyl)quinolin-8-yl)oxy)methyl)phenyl)(methyl)-λ^6-sulfanone]"
17,< 150,"COc1cc(CN2Cc3ccc(SC)cc3C2)ccc1OCc1ccc(C(=O)N(C)C)cc1 [Compound 34, 4-((2-Methoxy-4-((5-(methylthio)isoindolin-2-yl)methyl)phenoxy)methyl)-N,N-dimethylbenzamide]"

# Source: patent publication US20250011285A1, “CYP11A1 INHIBITORS” (ORION CORPORATION, priority 2021, published 2025)
